According to US11059860B2, “Biocidal peptide and preparation based thereon” (“VERTA RESEARCH-PRODUCTION COMPANY” LTD, priority 2017, dated 2021):
Where a SMILES comes first, the peptide text is derived from it. [ ]: non-standard residue; d: D form. Phe(2-Me) = Cc1ccccc1C[C@H](N)C(=O)O

Assays:
[1] = system: type 2 herpes simplex virus, strain G (ATCC VR-734, USA); test: Protective activity in lethal herpes infection caused in mice by vaginal infection; format: in vivo
thymus cells = test: Spontaneous proliferation of thymus cells (3H-thymidin capture); format: cell-based, murine; settings: 72 hrs
[2] = system: spleen cells stimulated with LPS; format: cell-based, murine
spleen cells = test: Spontaneous proliferation of spleen cells (3H-thymidin capture); format: cell-based, murine; settings: for spontaneous proliferation of spleen cells (captured 3H-thymidin): 72 hrs
[3] = system: RAW 264.7 macrophage line cells; test: NO production by RAW 264.7 macrophage line cells stimulated with LPS (Greiss test); format: cell-based
Procedure: Upon completion of incubation, the culture medium in all wells of the plate was replaced with 0.25 ml of fresh medium. […] Polymixin B (Calbiochem) (PMB) in the same concentrations was used as the positive control of the inhibition of the LPS effect. The prepared mixture was then added at 0.25 ml increments to the wells of the culture plate at least in two parallel experiments. A mixture of LPS and the culture medium was added to the control wells. The cells were cultivated for 24 hrs. in a CO2 incubator. NO production was measured based on the total nitrite level in the culture medium in the Greiss test by using a commercial reagent (Sigma) according to the manufacturer's specifications.

red blood cells = format: cell-based
Procedure: The mixture was then diluted with a phosphate (PBS) buffer (0.015 M Na2HPO4, 0.15 M NaCl, pH 7.4). Samples of peptides in specific concentrations in PBS were placed in wells of a 96-well plate, and a red cell suspension in PBS was added to the samples. The red cell concentration was 1%. PBS was used as the negative control (no hemolysis). The positive control (100% hemolysis) −0.1% triton X-100 in PBS. The plates were incubated for three hours at 37° C. under 5% CO2 and centrifuged. The supernatant was transferred to a clean plate. The intensity of the hemoglobin release from the destroyed red blood cells was determined on a tablet spectrophotometer “Victor-2” (Finland) at λ-450 nm. […] All measurements were made thrice.

[4] = mice, n = 15, applied once a day on days 1-5 post infection, followed 18 days
[5] = stimulated with 0.04 ml of LPS, peptide 0.4 μg/ml
[6] = stimulated with 0.04 ml of LPS, peptide 2 μg/ml
[7] = stimulated with 0.04 ml of LPS, peptide 10 μg/ml
[8] = stimulated with 0.2 ml of LPS, peptide 0.4 μg/ml
[9] = stimulated with 0.2 ml of LPS, peptide 2 μg/ml
[10] = stimulated with 0.2 ml of LPS, peptide 10 μg/ml

Compound: Nc1nc2c(ncn2COCCO)c(=O)[nH]1 [Acyclovir]
- Number of Dead animals [1, 4]: 4
- Number of Survived animals [1, 4]: 11
- Mortality ([1]; mice, n = 15, followed 18 days): 26.7%
- Increase in ALS ([1]; versus virus control group): 2.5

Compound: CC[C@H](C)[C@H](N)C(=O)N[C@@H](CC(C)C)C(=O)N1CCC[C@H]1C(=O)N[C@H](Cc1ccccc1)C(=O)N[C@@H](CCCCN)C(=O)N[C@H](Cc1ccccc1)C(=O)N1CCC[C@H]1C(=O)N[C@H](Cc1ccccc1)C(=O)N[C@H](Cc1ccccc1)C(=O)N1CCC[C@H]1C(=O)N[C@H](Cc1ccccc1)C(=O)N[C@@H](CCCNC(=N)N)C(=O)N[C@@H](CCCNC(=N)N)C(N)=O [Peptide 6, H-Ile-Leu-Pro-D-Phe-Lys-D-Phe-Pro-D-Phe-D-Phe-Pro-D-Phe-Arg-Arg-NH2] (H-ILP[dF]K[dF]P[dF][dF]P[dF]RR-NH2)
- spontaneous proliferation of thymus cells (captured 3H-thymidin) (thymus cells; peptide 0.08 μg/ml): 306 ± 103 imp/min
- spontaneous proliferation of thymus cells (captured 3H-thymidin) (thymus cells; peptide 0.4 μg/ml): 246 ± 48 imp/min
- spontaneous proliferation of thymus cells (captured 3H-thymidin) (thymus cells; peptide 2 μg/ml): 298 ± 63 imp/min
- spontaneous proliferation of thymus cells (captured 3H-thymidin) (thymus cells; peptide 10 μg/ml): 736 ± 161 imp/min
- effect on splenocyte proliferation stimulated with lipopolysaccharide (in words) [2]: inhibited the LPS effect
- effect on spontaneous proliferation of splenocytes (in words) (spleen cells; 2-10 μg/ml dose range): statistically significant enhancement of the spontaneous proliferation of splenocytes
- spontaneous proliferation of spleen cells (captured 3H-thymidin) (spleen cells; peptide 0.08 μg/ml): 1530 ± 510 imp/min
- spontaneous proliferation of spleen cells (captured 3H-thymidin) (spleen cells; peptide 0.4 μg/ml): 1615 ± 248 imp/min
- spontaneous proliferation of spleen cells (captured 3H-thymidin) (spleen cells; peptide 2 μg/ml): 1854 ± 236 imp/min
- spontaneous proliferation of spleen cells (captured 3H-thymidin) (spleen cells; peptide 10 μg/ml): 3279 ± 177 imp/min
- effect on NO production stimulated by LPS (in words) ([3]; 10-0.4 μg/ml doses): inhibited the NO production
- NO production inhibition [3, 5]: 0%
- NO production inhibition [3, 6]: 1%
- NO production inhibition [3, 7]: 8%
- NO production inhibition [3, 8]: 1%
- NO production inhibition [3, 9]: 10%
- NO production inhibition [3, 10]: 7%
- dose at which hemolysis was not induced (red blood cells): exceeding 200 μg/ml

Compound: CC[C@H](C)[C@H](N)C(=O)N[C@@H](CC(C)C)C(=O)N1CCC[C@H]1C(=O)N[C@@H](Cc1ccccc1C)C(=O)N[C@@H](CCCCN)C(=O)N[C@@H](Cc1ccccc1C)C(=O)N1CCC[C@H]1C(=O)N[C@@H](Cc1ccccc1C)C(=O)N[C@@H](Cc1ccccc1C)C(=O)N1CCC[C@H]1C(=O)N[C@@H](Cc1ccccc1C)C(=O)N[C@@H](CCCNC(=N)N)C(=O)N[C@@H](CCCNC(=N)N)C(N)=O [Peptide 11, H-Ile-Leu-Pro-(2-Me)Phe-Lys-(2-Me)Phe-Pro-(2-Me)Phe-(2-Me)Phe-Pro-(2-Me) Phe-Arg-Arg-NH2] (H-ILP[Phe(2-Me)]K[Phe(2-Me)]P[Phe(2-Me)][Phe(2-Me)]P[Phe(2-Me)]RR-NH2)
- dose at which hemolysis was not induced (red blood cells): exceeding 200 μg/ml

Compound: Polymixin B [PMB]
- spontaneous proliferation of thymus cells (captured 3H-thymidin) (thymus cells; peptide 0.08 μg/ml): 255 ± 68 imp/min
- spontaneous proliferation of thymus cells (captured 3H-thymidin) (thymus cells; peptide 0.4 μg/ml): 197 ± 10 imp/min
- spontaneous proliferation of thymus cells (captured 3H-thymidin) (thymus cells; peptide 2 μg/ml): 197 ± 12 imp/min
- spontaneous proliferation of thymus cells (captured 3H-thymidin) (thymus cells; peptide 10 μg/ml): 201 ± 66 imp/min
- spontaneous proliferation of spleen cells (captured 3H-thymidin) (spleen cells; peptide 0.08 μg/ml): 1488 ± 497 imp/min
- spontaneous proliferation of spleen cells (captured 3H-thymidin) (spleen cells; peptide 0.4 μg/ml): 1548 ± 140 imp/min
- spontaneous proliferation of spleen cells (captured 3H-thymidin) (spleen cells; peptide 2 μg/ml): 2051 ± 167 imp/min
- spontaneous proliferation of spleen cells (captured 3H-thymidin) (spleen cells; peptide 10 μg/ml): 2051 ± 456 imp/min
- NO production inhibition [3, 5]: 44%
- NO production inhibition [3, 6]: 85%
- NO production inhibition [3, 7]: 94%
- NO production inhibition [3, 8]: 11%
- NO production inhibition [3, 9]: 62%
- NO production inhibition [3, 10]: 98%
